Assay results as given in PubChem BioAssay (NCI).
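Following 48 hours of exposure in 96-well plates, responses at five concentrations were used to interpolate endpoints linearly. GI50 is the concentration that inhibits growth by half. The concentration for full growth arrest is given as TGI.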

What was measured:
Experiment in all cases: NCI-60 cell line screen, 48 h
786-0 renal = tested on: 786-0 renal
A498 renal = tested on: A498 renal
A549 NSCLC = tested on: A549 NSCLC
ACHN renal = tested on: ACHN renal
BT-549 breast = tested on: BT-549 breast
CAKI-1 renal = tested on: CAKI-1 renal
CCRF-CEM leukemia = tested on: CCRF-CEM leukemia
COLO 205 colon = tested on: COLO 205 colon
DU-145 prostate = tested on: DU-145 prostate
EKVX NSCLC = tested on: EKVX NSCLC
HCC-2998 colon = tested on: HCC-2998 colon
HCT-116 colon = tested on: HCT-116 colon
HCT-15 colon = tested on: HCT-15 colon
HL-60(TB) leukemia = tested on: HL-60(TB) leukemia
HOP-62 NSCLC = tested on: HOP-62 NSCLC
HOP-92 NSCLC = tested on: HOP-92 NSCLC
HS 578T breast = tested on: HS 578T breast
HT29 colon = tested on: HT29 colon
IGROV1 ovarian = tested on: IGROV1 ovarian
K-562 leukemia = tested on: K-562 leukemia
KM12 colon = tested on: KM12 colon
LOX IMVI melanoma = tested on: LOX IMVI melanoma
M14 melanoma = tested on: M14 melanoma
MALME-3M melanoma = tested on: MALME-3M melanoma
MCF7 breast = tested on: MCF7 breast
MDA-MB-231 breast = tested on: MDA-MB-231 breast
MOLT-4 leukemia = tested on: MOLT-4 leukemia

## CC(=Nc1ccccc1)C1=C(O)C(Cc2ccc(O)cc2)NC1=O (stereo not given)
786-0 renal
  GI50: 0.505 µM
  TGI: > 100 µM
A498 renal
  GI50: 0.255 µM
A549 NSCLC
  GI50: 0.126 µM
  TGI: > 100 µM
ACHN renal
  GI50: 0.0738 µM
  TGI: > 100 µM
BT-549 breast
  GI50: 0.0577 µM
  TGI: 1.12 µM
CAKI-1 renal
  GI50: 0.0635 µM
  TGI: > 100 µM
CCRF-CEM leukemia
  GI50: 0.131 µM
  TGI: > 100 µM
COLO 205 colon
  GI50: 0.076 µM
  TGI: 0.28 µM
DU-145 prostate
  GI50: 0.178 µM
  TGI: 0.994 µM
EKVX NSCLC
  GI50: 0.16 µM
  TGI: > 100 µM
HCC-2998 colon
  GI50: 0.124 µM
  TGI: 0.641 µM
HCT-116 colon
  GI50: 0.0503 µM
  TGI: 1.93 µM
HCT-15 colon
  GI50: 0.0585 µM
  TGI: > 46.8 µM
HL-60(TB) leukemia
  GI50: 0.0376 µM
  TGI: 0.176 µM
HOP-62 NSCLC
  GI50: 0.106 µM
  TGI: 2.46 µM
HOP-92 NSCLC
  GI50: 0.082 µM
  TGI: > 100 µM
HS 578T breast
  GI50: 0.0771 µM
HT29 colon
  GI50: 0.0472 µM
  TGI: 0.452 µM
IGROV1 ovarian
  GI50: 0.232 µM
K-562 leukemia
  GI50: 0.044 µM
  TGI: > 50.7 µM
KM12 colon
  GI50: 0.0472 µM
  TGI: 1.31 µM
LOX IMVI melanoma
  GI50: 0.152 µM
  TGI: > 23.1 µM
M14 melanoma
  GI50: 0.0469 µM
  TGI: 0.269 µM
MALME-3M melanoma
  GI50: 0.0477 µM
  TGI: > 100 µM
MCF7 breast
  GI50: 0.0391 µM
  TGI: > 100 µM
MDA-MB-231 breast
  GI50: 1.06 µM
  TGI: > 100 µM
MOLT-4 leukemia
  GI50: 0.371 µM
